Laboratory results taken from PMC12224672, “Advancing the development of TRIP13 inhibitors: A high-throughput screening approach” (SLAS discovery : advancing life sciences R & D, 2025).

Target: T1, TRIP13 (Homo sapiens, UniProt Q15645)
T1 construct: full length, 1-432 aa, N-GST-tagged
T1 sequence (Q15645 1-432): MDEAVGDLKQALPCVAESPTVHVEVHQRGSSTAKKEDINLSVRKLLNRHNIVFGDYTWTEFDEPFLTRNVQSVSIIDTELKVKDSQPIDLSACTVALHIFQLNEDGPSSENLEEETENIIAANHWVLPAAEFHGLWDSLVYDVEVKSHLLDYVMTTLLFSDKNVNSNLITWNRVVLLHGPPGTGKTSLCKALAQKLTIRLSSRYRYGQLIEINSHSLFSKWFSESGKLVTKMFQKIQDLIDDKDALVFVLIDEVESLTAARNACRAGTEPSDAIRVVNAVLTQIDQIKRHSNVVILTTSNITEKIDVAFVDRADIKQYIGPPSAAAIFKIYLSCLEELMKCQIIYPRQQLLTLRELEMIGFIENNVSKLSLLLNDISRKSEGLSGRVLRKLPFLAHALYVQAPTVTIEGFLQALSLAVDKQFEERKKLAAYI
Test: ADP-Glo ATPase dose-response ([…] TRIP13, […] ATP) with ADP counter-screen; also CETSA in HeLa cells
Assay type: biochemical

## COc1cc2c(Oc3ccc4[nH]c(C)cc4c3F)ccnc2cc1OCC1(N)CC1 [anlotinib]
  IC50: 5.5 ± 1 µM
